Data taken from patent publication US20260125371A1, “METHOD FOR INHIBITING CLOSTRIDIOIDES DIFFICILE SPORE GERMINATION” (UNIVERSITY OF NOTRE DAME DU LAC, priority 2022, published 2026).
Values after ≈ are worked out from the molar mass of the structure shown.

What was measured:
[1] = system: Lactobacillus gasseri HM-644; assay: MIC against Lactobacillus gasseri (gut bacteria); type: cell-based; settings: HM644
C. difficile strains = assay: MIC (microdilution) against panel of 101 C. difficile strains; type: cell-based, Clostridioides difficile; settings: for MIC: Clostridioides difficile
[2] = C. difficile strains of Table 4

## O=[N+]([O-])c1cnc(-c2nc(-c3ccc(OC4CCCC4)cc3)no2)[nH]1 [Compound 57, 3-(4-(Cyclopentyloxy)phenyl)-5-(4-nitro-1H-imidazol-2-yl)-1,2,4-oxadiazole]
[1]
  MIC: > 128 µg/mL
C. difficile strains; 101 C. difficile strains
  IMIC50 (101 strains): 0.5 µg/mL
C. difficile strains; [2]
  MIC50: 0.5 µg/mL (≈ 1.46 µM)
  MIC90: 1 µg/mL (≈ 2.93 µM)
C. difficile strains; ATCC43598, strain ATCC43598
  MIC: 0.5 µg/mL (≈ 1.46 µM)
C. difficile strains; BAA1801, strain BAA-1801
  MIC: 0.25 µg/mL (≈ 0.732 µM)
C. difficile strains; BAA1804, strain BAA-1804
  MIC: 0.125 µg/mL (≈ 0.366 µM)
C. difficile strains; BAA1812, strain BAA-1812
  MIC: 0.125 µg/mL (≈ 0.366 µM)
C. difficile strains; BAA1814, strain BAA-1814
  MIC: 0.125 µg/mL (≈ 0.366 µM)
C. difficile strains; BAA1870, strain BAA-1870
  MIC: 0.125 µg/mL (≈ 0.366 µM)
C. difficile strains; C. difficile 24531, resistant to VAN
  MIC: 0.125 µg/mL (≈ 0.366 µM)
C. difficile strains; C. difficile NR49292
  MIC: 0.125 µg/mL (≈ 0.366 µM)
C. difficile strains; C. difficile NR49302
  MIC: 0.25 µg/mL (≈ 0.732 µM)
C. difficile strains; C. difficile NR49305
  MIC: 0.125 µg/mL (≈ 0.366 µM)
C. difficile strains; C. difficile NR49310
  MIC: 0.25 µg/mL (≈ 0.732 µM)
C. difficile strains; strain HM-88
  MIC: 1 µg/mL (≈ 2.93 µM)
C. difficile strains; strain HM-89
  MIC: 0.5 µg/mL (≈ 1.46 µM)
C. difficile strains; strain HM-745
  MIC: 0.5 µg/mL (≈ 1.46 µM)
C. difficile strains; strain HM-746
  MIC: 0.5 µg/mL (≈ 1.46 µM)
C. difficile strains; strain HM-747
  MIC: 0.25 µg/mL (≈ 0.732 µM)
C. difficile strains; strain NR49292
  MIC: 0.125 µg/mL (≈ 0.366 µM)
C. difficile strains; strain NR49294
  MIC: 0.5 µg/mL (≈ 1.46 µM)
C. difficile strains; strain NR49302
  MIC: 0.25 µg/mL (≈ 0.732 µM)
C. difficile strains; strain NR49305
  MIC: 0.125 µg/mL (≈ 0.366 µM)
C. difficile strains; strain NR49310
  MIC: 0.25 µg/mL (≈ 0.732 µM)
C. difficile strains; strain NR49318
  MIC: 0.5 µg/mL (≈ 1.46 µM)
C. difficile strains; strain NR-13427
  MIC: 0.5 µg/mL (≈ 1.46 µM)
C. difficile strains; strain NR-13428
  MIC: 0.5 µg/mL (≈ 1.46 µM)
C. difficile strains; strain NR-13429
  MIC: 0.5 µg/mL (≈ 1.46 µM)
C. difficile strains; strain NR-13430
  MIC: 0.5 µg/mL (≈ 1.46 µM)
C. difficile strains; strain NR-13431
  MIC: 0.5 µg/mL (≈ 1.46 µM)
C. difficile strains; strain NR-13433
  MIC: 1 µg/mL (≈ 2.93 µM)
C. difficile strains; strain NR-13434
  MIC: 0.125 µg/mL (≈ 0.366 µM)
C. difficile strains; strain NR-13435
  MIC: 0.5 µg/mL (≈ 1.46 µM)
C. difficile strains; strain NR-13436
  MIC: 0.5 µg/mL (≈ 1.46 µM)
C. difficile strains; strain NR-13437
  MIC: 0.5 µg/mL (≈ 1.46 µM)
C. difficile strains; strain NR-13438
  MIC: 0.25 µg/mL (≈ 0.732 µM)
C. difficile strains; strain NR-13553
  MIC: 0.125 µg/mL (≈ 0.366 µM)
C. difficile strains; strain NR-32882
  MIC: 0.5 µg/mL (≈ 1.46 µM)
C. difficile strains; strain NR-32883
  MIC: 0.5 µg/mL (≈ 1.46 µM)
C. difficile strains; strain NR-32884
  MIC: 0.5 µg/mL (≈ 1.46 µM)
C. difficile strains; strain NR-32885
  MIC: 0.5 µg/mL (≈ 1.46 µM)
C. difficile strains; strain NR-32886
  MIC: 0.5 µg/mL (≈ 1.46 µM)
C. difficile strains; strain NR-32887
  MIC: 1 µg/mL (≈ 2.93 µM)
C. difficile strains; strain NR-32888
  MIC: 1 µg/mL (≈ 2.93 µM)
C. difficile strains; strain NR-32889
  MIC: 1 µg/mL (≈ 2.93 µM)
C. difficile strains; strain NR-32890
  MIC: 0.125 µg/mL (≈ 0.366 µM)
C. difficile strains; strain NR-32891
  MIC: 0.5 µg/mL (≈ 1.46 µM)
C. difficile strains; strain NR-32892
  MIC: 0.25 µg/mL (≈ 0.732 µM)
C. difficile strains; strain NR-32895
  MIC: 0.25 µg/mL (≈ 0.732 µM)
C. difficile strains; strain NR-32896
  MIC: 0.25 µg/mL (≈ 0.732 µM)
C. difficile strains; strain NR-32897
  MIC: 0.25 µg/mL (≈ 0.732 µM)
C. difficile strains; strain NR-32900
  MIC: 0.25 µg/mL (≈ 0.732 µM)
C. difficile strains; strain NR-32903
  MIC: 0.25 µg/mL (≈ 0.732 µM)
C. difficile strains; strain NR-32904
  MIC: 0.125 µg/mL (≈ 0.366 µM)
C. difficile strains; strain NR-49277
  MIC: 0.5 µg/mL (≈ 1.46 µM)
C. difficile strains; strain NR-49278
  MIC: 0.5 µg/mL (≈ 1.46 µM)
